How the values were obtained:
[1] = tested on: CD4+ and CD8+ lymphocyte subsets; conditions: after repeated applications; cited from earlier work
[2] = tested on: PHA-activated T-lymphocytes (peripheral blood mononuclear cells); test: T-lymphocyte colony formation (lymphocyte colony-growth assay, microagar culture); assay type: cell-based; conditions: 168 h, PBMC, colonies scored after 7 days, read-out: 50% inhibition of PHA-induced lymphocyte proliferation (colony formation)
Procedure: dFdC is commercially available. […] Aye, Blood 58, 1043 (1981). Therefore, peripheral blood mononuclear cells (PBMC) were cultured with phytohemagglutinin (PHA) and varying concentrations of dFdC in the microagar culture system described by Petzer et al., Blood 78, 2583 (1991). PBMCs were suspended in Iscove s medium containing 20% fetal calf serum and 0.3% agar. Subsequently 250 μl aliquots of this suspension containing 2×10^5 PBMCs were plated in multiwell tissue culture plates. The agar was allowed to solidify at room temperature and then was overlayered with 250 μl medium containing 0.5% PHA and 0.5% 2-mercaptoethanol (1×10^−4 mol/l final concentrations). The cultures were incubated at 37° C. in a fully humidified atmosphere containing 5% CO2 and colonies were scored using an inverted microscope after 7 days of incubation.

heart allografts = test: Rat heart-transplantation model (heterotopic heart allograft); assay type: in vivo; parameters: Leucopenia: dose or concentration left out as unconfirmed; conditions: for Graft rejection: histology graded by ISHT criteria
Procedure: Inbred male LEWIS (LEW) rats and Brown Norway (BN) rats weighing 200-270 g were obtained from “Zentralinstitut fur Versuchstierzucht”, Hannover, Germany. Heterotopic heart transplants were performed using microsurgical techniques as described by Schmid et al., Eur. Surg. […] Postoperatively, all animals were given water and standard rat diet ad libitum.
dFdC was administered subcutaneously once daily for 50 consecutive days beginning immediately after surgery. […] The control group (n=8) received no treatment.
The beating activity of heart allografts was determined by daily palpation. Animals were sacrificed by an overdose of ether whenever cardiac allografts stopped beating and hearts and all vital organs were excised for histology. Multiple sections of the left ventricle of the transplant and of every native organ were fixed in 4% buffered formalin. Paraffin-embedded probes were cut into 5-jim-thick sections and stained with hematoxylin and eosin. Slides were assessed by a pathologist blinded to the study and rejection was graded according to the ISHT criteria.

[3] = daily x5 schedule, 9 mg/m^2 dose level; cited from earlier work
[4] = i.v. over 30 minutes once per week for 3 weeks followed by a week's rest; cited from earlier work
CD4+ lymphocytes = conditions: daily x5 schedule, low malignant lymphomas; cited from earlier work

Compound: Nc1ccn([C@@H]2O[C@H](CO)[C@@H](O)C2(F)F)c(=O)n1 [dFdC, 2′-deoxy-2′,2′-difluorocytidine]
- Reduction of CD4+ and CD8+ lymphocyte subsets [1]: no significant reduction
- IC50 [2]: 3.25 ± 0.9 nM
- Allograft survival (heart allografts; 25 μg/kg/day s.c. once daily for 50 days): 7.3 days
- Graft rejection (heart allografts; 25 μg/kg/day): Grade IV
- Allograft survival (heart allografts; 50 μg/kg/day s.c. once daily for 50 days): 9.2 days
- Graft rejection (heart allografts; 50 μg/kg/day): Grade IV
- Allograft survival (heart allografts; 75 μg/kg/day s.c. once daily for 50 days): 15.7 days
- Graft rejection (heart allografts; 75 μg/kg/day): Grade IV
- Allograft survival (heart allografts; 100 μg/kg/day s.c. once daily for 50 days): 152.8 days
- Graft rejection (heart allografts; 100 μg/kg/day): Grade IV
- Allograft survival (heart allografts; 125 μg/kg/day s.c. once daily for 50 days): 144.2 days
- Graft rejection (heart allografts; 125 μg/kg/day): Grade IV
- Allograft survival (heart allografts; 150 μg/kg/day s.c. once daily for 50 days): 41.5 days
- Graft rejection (heart allografts; 150 μg/kg/day): None
- Allograft survival (heart allografts; 300 μg/kg/day s.c. once daily for 50 days): 16.0 days
- Graft rejection (heart allografts; 300 μg/kg/day): None
- Allograft survival (heart allografts; 600 μg/kg/day s.c. once daily for 50 days): 10.5 days
- Graft rejection (heart allografts; 600 μg/kg/day): None
- Allograft survival (heart allografts; 6000 μg/kg/day s.c. once daily for 50 days): 4.0 days
- Graft rejection (heart allografts; 6000 μg/kg/day): None
- Graft survival compared to untreated controls (heart allografts; all animals given between 75 and 600 μg/kg BW): prolonged
- Leucopenia (heart allografts; all animals of all dose groups): Dose-dependent leucopenia occurred in all animals of all groups
- Reversibility of leucopenia (heart allografts; animals given less than 150 μg/kg): reversible
- Toxicity at high dose (heart allografts; more than 125 μg/kg BW): overimmunosuppression and irreversible myelotoxicity
- Nonhaematologic toxicity [3]: significant amount of nonhaematologic toxicity including sporadic fever and severe hypertension
- Myelosuppression with severe infections (WHO grade III/IV), share of patients [4]: less than 1%

Compound: Nc1nc(Cl)nc2c1ncn2[C@H]1C[C@H](O)[C@@H](CO)O1 [2-chlorodeoxyadenosine]
- Duration of severe suppression of CD4+ lymphocytes (CD4+ lymphocytes): more than 12 months

— patent US6555518B1, “Gemcitabine as an immunosuppressive pharmaceutical agent” (Eli Lilly and Company, priority 1998, dated 2003)
